This is an account of results in US6734182B2, “Aryl sulfonamides and sulfamide derivatives and uses thereof” (Synaptic Pharmaceutical Corporation, priority 1995, dated 2004).

One may read the Kb as the equilibrium dissociation constant of an antagonist, usually derived from a functional assay. Low readings indicate higher antagonist affinity, high ones lower antagonist affinity.

One assay has as its target T1, human Y5 receptor (Homo sapiens, UniProt Q15761).
T1 construct: expressed in transfected cells
T1 sequence (Q15761 1-445): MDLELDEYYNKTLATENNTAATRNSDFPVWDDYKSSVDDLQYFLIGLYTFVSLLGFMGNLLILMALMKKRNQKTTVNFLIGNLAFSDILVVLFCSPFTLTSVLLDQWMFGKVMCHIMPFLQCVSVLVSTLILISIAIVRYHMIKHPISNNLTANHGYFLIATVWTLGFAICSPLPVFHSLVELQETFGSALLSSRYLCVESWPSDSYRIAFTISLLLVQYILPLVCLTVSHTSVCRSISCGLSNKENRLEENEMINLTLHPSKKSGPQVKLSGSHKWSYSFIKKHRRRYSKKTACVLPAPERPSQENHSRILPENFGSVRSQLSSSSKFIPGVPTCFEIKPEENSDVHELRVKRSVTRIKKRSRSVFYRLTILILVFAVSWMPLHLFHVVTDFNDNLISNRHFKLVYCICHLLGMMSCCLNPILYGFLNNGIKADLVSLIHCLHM
Kind of assay: Radioligand binding to cloned human Y5 receptor (125I-PYY). The settings on record: cloned human Y5, stably transfected cells, read-out: Binding Affinity (K1 (nM) vs. 125I-PYY) Human Receptor Y5.

The target of another assay is T2, cloned human Y5 receptor (Homo sapiens, UniProt Q15761).
T2 construct: expressed in transfected cells
T2 sequence (Q15761 1-445): T1 sequence (Q15761 1-445)
Kind of assay: Functional assay: block of NPY-induced inhibition of cAMP accumulation in forskolin-stimulated LM(tk-) cells (radioimmunoassay of cAMP). The settings on record: antagonism of NPY-induced inhibition of cAMP accumulation, forskolin-stimulated LM(tk-) cells with human Y5; at least three experiments. The class given is cell-based. A general note: Cyclic AMP is a second messenger, typically raised through Gs and lowered through Gi signalling.

The target in assay [1] is T3, human dopamine D3 receptor (Homo sapiens, UniProt P35462).
T3 construct: expressed in transfected cells; host or cells: COS-7 cells, transient
T3 sequence (P35462 whole entry): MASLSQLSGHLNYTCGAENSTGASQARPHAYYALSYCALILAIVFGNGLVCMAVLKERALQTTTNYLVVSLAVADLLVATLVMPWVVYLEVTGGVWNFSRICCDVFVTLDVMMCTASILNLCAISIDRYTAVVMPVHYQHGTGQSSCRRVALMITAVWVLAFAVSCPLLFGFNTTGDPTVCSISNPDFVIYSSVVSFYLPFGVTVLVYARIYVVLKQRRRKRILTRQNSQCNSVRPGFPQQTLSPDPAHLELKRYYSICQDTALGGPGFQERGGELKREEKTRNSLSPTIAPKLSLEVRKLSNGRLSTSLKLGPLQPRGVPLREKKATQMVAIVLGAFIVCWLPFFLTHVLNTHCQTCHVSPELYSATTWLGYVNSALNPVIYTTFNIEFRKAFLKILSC
Kind of assay: Binding to human dopamine D3 receptor ([3H]spiperone). The settings on record: cloned human receptor.

The next assay has as its target T4, human α1a receptor (Homo sapiens, UniProt P35348).
T4 construct: expressed in transfected cells
Kind of assay: Binding to cloned human α1a adrenergic receptor.

A further assay deals with T5, human 5HT1F receptor (Homo sapiens, UniProt P30939).
T5 construct: expressed in transfected cells
T5 sequence (P30939 1-366): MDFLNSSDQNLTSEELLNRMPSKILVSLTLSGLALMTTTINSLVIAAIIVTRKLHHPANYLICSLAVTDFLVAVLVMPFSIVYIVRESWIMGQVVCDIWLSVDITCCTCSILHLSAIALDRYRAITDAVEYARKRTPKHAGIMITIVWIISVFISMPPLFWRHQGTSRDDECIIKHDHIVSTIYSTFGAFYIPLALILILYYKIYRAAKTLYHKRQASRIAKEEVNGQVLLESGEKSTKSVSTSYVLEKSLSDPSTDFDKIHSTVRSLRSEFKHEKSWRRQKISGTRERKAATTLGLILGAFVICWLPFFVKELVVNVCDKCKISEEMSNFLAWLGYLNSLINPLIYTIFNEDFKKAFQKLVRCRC
The assay can be described thus: Binding to human 5HT1F receptor ([3H]serotonin). The conditions noted are these: cloned human receptor. The protocol:
5HT1Dα, 5HT1Dβ, 5HT1E, 5HT1F Receptors: LM(tk−) clonal cell lines stably transfected with the genes encoding each of these 5HT receptor subtypes were prepared as described above. The cell line for the 5HT1Dα, receptor, designated as Ltk−8-30-84, was deposited on Apr. 17, 1990, and accorded ATCC Accession No. CRL 10421. The cell for the 5HT1Dβ receptor, designated as Ltk−11, was deposited on Apr. 17, 1990, and accorded ATCC Accession No. CRL 10422. The cell line for the 5HT1E receptor, designated 5 HT1E-7, was deposited on Nov. 6, 1991, and accorded ATCC Accession No. CRL 10913. The cell line for the 5HT1F receptor, designated L-5-HT1F, was deposited on Dec. 27, 1991, and accorded ATCC Accession No. ATCC 10957. Membrane preparations comprising these receptors were prepared as described below, and suspended in 50 mM Tris-HCl buffer (pH 7.4 at 37° C.) containing 10 mM MgCl2, 0.2 mM EDTA, 10 μM pargyline, and 0.1% ascorbate. The binding of compounds was determined in competition binding assays by incubation for 30 minutes at 37° C. in the presence of 5 nM [^3H) serotonin. Nonspecific binding was determined in the presence of 10 μM serotonin. The bound radioligand was separated by filtration through GF/B filters using a cell harvester.

A further assay addresses T6, human α1b receptor (Homo sapiens, UniProt P35368).
T6 construct: expressed in transfected cells
The assay can be described thus: Binding to cloned human α1b adrenergic receptor.

Another assay concerns the target T7, human α2B receptor (Homo sapiens, UniProt P18089).
T7 construct: expressed in transfected cells
The assay can be described thus: Binding to cloned human α2B adrenergic receptor ([3H]rauwolscine).

For the next assay, the target named is T8, human α1d receptor (Homo sapiens, UniProt P25100).
T8 construct: expressed in transfected cells
T8 sequence (P25100 whole entry): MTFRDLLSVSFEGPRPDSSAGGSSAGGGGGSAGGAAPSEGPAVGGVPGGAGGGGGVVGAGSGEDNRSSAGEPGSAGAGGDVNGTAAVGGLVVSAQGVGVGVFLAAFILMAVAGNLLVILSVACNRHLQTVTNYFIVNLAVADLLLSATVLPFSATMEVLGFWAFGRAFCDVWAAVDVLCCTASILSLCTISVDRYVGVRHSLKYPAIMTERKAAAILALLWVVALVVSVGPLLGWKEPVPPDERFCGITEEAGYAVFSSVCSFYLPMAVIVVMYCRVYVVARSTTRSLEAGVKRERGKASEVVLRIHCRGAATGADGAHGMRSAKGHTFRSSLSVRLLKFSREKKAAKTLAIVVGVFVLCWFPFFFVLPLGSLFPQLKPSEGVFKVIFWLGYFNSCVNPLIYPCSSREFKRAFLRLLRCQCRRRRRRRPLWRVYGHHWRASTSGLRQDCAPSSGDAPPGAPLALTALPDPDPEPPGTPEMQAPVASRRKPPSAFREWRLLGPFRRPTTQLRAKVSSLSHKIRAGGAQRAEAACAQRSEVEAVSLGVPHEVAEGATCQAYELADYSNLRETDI
The assay can be described thus: Binding to cloned human α1d adrenergic receptor.

In another assay the target is T9, human 5HT1Dβ receptor (Homo sapiens, UniProt P28222).
T9 construct: expressed in transfected cells
T9 sequence (P28222 whole entry): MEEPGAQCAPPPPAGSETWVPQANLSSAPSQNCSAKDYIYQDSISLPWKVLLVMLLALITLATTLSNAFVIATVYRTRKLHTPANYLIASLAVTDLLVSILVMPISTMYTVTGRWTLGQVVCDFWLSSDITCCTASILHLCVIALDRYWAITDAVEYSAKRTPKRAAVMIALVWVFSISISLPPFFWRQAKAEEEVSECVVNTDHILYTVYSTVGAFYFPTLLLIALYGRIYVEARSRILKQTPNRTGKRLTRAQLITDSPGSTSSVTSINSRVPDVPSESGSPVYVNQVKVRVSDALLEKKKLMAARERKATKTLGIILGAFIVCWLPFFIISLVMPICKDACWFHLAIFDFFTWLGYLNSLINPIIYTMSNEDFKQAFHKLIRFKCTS
The assay can be described thus: Binding to human 5HT1Dβ receptor ([3H]serotonin). The conditions noted are these: cloned human receptor.

Molecules are shown by their SMILES.

T6 sequence (P35368 whole entry): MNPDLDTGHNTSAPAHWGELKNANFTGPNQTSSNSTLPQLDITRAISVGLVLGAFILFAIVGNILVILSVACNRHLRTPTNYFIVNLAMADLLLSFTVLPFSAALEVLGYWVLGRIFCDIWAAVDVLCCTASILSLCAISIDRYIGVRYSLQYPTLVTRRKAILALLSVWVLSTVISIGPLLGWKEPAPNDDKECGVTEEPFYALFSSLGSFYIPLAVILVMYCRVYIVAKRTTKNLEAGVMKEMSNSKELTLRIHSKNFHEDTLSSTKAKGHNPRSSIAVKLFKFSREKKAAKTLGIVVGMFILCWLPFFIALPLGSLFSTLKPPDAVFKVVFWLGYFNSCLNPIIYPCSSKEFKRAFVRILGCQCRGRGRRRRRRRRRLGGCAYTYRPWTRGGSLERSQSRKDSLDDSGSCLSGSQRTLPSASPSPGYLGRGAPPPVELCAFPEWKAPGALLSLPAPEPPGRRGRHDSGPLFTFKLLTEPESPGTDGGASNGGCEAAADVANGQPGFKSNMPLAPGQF
T4 sequence (P35348 whole entry): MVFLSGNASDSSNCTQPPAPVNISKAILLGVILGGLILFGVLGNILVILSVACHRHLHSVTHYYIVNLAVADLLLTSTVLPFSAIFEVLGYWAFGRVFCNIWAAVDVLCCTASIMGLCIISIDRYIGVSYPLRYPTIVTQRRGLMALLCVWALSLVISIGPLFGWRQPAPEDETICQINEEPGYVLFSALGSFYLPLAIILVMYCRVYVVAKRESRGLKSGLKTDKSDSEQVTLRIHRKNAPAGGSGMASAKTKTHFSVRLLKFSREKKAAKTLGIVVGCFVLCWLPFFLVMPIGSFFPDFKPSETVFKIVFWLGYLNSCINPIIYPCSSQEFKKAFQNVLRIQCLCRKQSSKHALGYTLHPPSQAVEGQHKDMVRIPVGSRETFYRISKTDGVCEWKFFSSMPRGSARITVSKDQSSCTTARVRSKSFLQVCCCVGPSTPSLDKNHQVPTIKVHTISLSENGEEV
T7 sequence (P18089 whole entry): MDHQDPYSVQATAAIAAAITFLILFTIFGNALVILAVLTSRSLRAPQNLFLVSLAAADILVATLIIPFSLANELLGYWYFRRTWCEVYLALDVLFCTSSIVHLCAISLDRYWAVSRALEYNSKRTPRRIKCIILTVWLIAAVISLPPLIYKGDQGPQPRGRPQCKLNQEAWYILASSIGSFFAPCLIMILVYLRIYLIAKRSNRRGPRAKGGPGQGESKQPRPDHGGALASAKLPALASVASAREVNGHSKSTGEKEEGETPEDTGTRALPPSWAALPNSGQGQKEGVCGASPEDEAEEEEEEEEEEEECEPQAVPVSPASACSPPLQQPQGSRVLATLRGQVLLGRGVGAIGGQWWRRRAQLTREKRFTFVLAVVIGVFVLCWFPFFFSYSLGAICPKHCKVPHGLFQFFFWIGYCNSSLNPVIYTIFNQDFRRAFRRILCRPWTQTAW
Procedure for human 5HT1Dβ receptor: 5HT1Dα, 5HT1Dβ, 5HT1E, 5HT1F Receptors: LM(tk−) clonal cell lines stably transfected with the genes encoding each of these 5HT receptor subtypes were prepared as described above. […] Membrane preparations comprising these receptors were prepared as described below, and suspended in 50 mM Tris-HCl buffer (pH 7.4 at 37° C.) containing 10 mM MgCl2, 0.2 mM EDTA, 10 μM pargyline, and 0.1% ascorbate. The binding of compounds was determined in competition binding assays by incubation for 30 minutes at 37° C. in the presence of 5 nM [^3H) serotonin. Nonspecific binding was determined in the presence of 10 μM serotonin.
Source text for human α1a receptor: (§1) α1 Human Adrenergic Receptors: To determine the binding of compounds to human α1 receptors, LM(tk−) cell lines stably transfected with the genes encoding the α1a, α1b, and α1d receptors were used. The nomenclature describing the α1 receptors was changed recently, such that the receptor formerly designated α1a is now designated α1d, and the receptor formerly designated α1c is now designated α1a (ref).
Source text for human α1b receptor: as §1
Source text for human α1d receptor: as §1
Procedure for human α2B receptor: α2 Human Adrenergic Receptors: To determine the binding of compounds to human α2 receptors, LM(tk−) cell lines stably transfected with the genes encoding the α2A, α2B, and α2C receptors were used. […] Cell lysates were prepared as described below (see Radioligand Dinding to Membrane Suspensions), and suspended in 25 mM glycylglycine buffer (pH 7.6 at room temperature). Equilibrium competition binding assay were performed using [^3H]rauwolscine (0.5 nM), and nonspecific binding was determined by incubation with 10 μM phentolamine.

As for `Cl.O=S(=O)(NCC1CCC(CNCC2CCc3ccccc3C2)CC1)c1cccc2ccccc12` (stereo not drawn) [Example 32], at human Y5 receptor, the Ki was found to be 11 nM. At cloned human Y5 receptor, this compound had a Kb of 0.023 µM. For the same compound, in assay [1], the “Receptor (pKi) D3” value is recorded as 6.69. Also, the “Receptor (pKi) α1a” value at human α1a receptor turned out to be 7.47. For the same compound, at human 5HT1F receptor, the “Receptor (pKi) 5HT1F” value is reported as not above 5.30. Also, on human α1b receptor, the “Receptor (pKi) α1b” value stood at 7.35. The “Receptor (pKi) α2b” value at human α2B receptor stood at 6.58. On human α1d receptor, the “Receptor (pKi) α1d” value stood at 6.90. Also, the “Receptor (pKi) 5HT1Dβ” value on human 5HT1Dβ receptor was not above 5.30.
For `Cl.O=[N+]([O-])c1ccccc1S(=O)(=O)NCC1CCC(CNCC2CCc3ccccc3C2)CC1` (stereo not drawn) [Example 36], at human Y5 receptor, the Ki is 8.3 nM. In addition, at cloned human Y5 receptor, the Kb came to 0.026 µM. Moreover, the “Receptor (pKi) D3” value in assay [1] is 6.35. On human α1a receptor, the “Receptor (pKi) α1a” value is given as 7.72. Moreover, the “Receptor (pKi) 5HT1F” value on human 5HT1F receptor is reported as not above 5.30. Moreover, the “Receptor (pKi) α1b” value on human α1b receptor stood at 7.22. The “Receptor (pKi) α2b” value on human α2B receptor turned out to be 6.96. On human α1d receptor, the “Receptor (pKi) α1d” value turned out to be 7.01. Besides, the “Receptor (pKi) 5HT1Dβ” value at human 5HT1Dβ receptor amounted to 5.37.
